According to ChEMBL document CHEMBL5608259 (J Med Chem, 2024):
Activity calls are given as the source filed them. No cut-off for these calls is given here.

Legend:
[1] = target: T1, Histone-arginine methyltransferase CARM1 (Homo sapiens) (UniProt Q86X55); assay: Inhibition of human PRMT4 using histone H3 as substrate and SAM as cofactor at 10 uM by radiometric HotSpot assay relative to control
T1 sequence (whole entry): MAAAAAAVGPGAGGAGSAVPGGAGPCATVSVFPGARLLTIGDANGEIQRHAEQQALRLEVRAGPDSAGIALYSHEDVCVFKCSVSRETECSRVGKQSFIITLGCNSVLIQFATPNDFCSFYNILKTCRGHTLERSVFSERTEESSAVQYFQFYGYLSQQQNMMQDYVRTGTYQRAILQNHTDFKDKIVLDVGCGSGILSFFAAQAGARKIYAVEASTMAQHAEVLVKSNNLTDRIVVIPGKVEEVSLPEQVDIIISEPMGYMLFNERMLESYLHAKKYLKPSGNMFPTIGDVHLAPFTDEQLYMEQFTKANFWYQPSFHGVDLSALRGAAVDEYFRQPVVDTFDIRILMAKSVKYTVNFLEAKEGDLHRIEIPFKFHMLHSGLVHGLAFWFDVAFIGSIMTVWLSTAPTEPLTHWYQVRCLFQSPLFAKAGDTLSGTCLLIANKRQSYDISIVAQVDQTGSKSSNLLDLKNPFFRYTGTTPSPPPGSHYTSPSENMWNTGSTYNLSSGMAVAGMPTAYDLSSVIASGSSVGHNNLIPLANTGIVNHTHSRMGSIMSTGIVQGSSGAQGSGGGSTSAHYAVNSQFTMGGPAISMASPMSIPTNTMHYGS

[2] = target: Protein arginine N-methyltransferase 3 (Homo sapiens, UniProt O60678); assay: Inhibition of human PRMT3 using H4-21peptide as substrate at 10 uM incubated for 10 mins by fluorescence based analysis relative to control
Chain of Protein arginine N-methyltransferase 3 (O60678 2-531 limits assumed): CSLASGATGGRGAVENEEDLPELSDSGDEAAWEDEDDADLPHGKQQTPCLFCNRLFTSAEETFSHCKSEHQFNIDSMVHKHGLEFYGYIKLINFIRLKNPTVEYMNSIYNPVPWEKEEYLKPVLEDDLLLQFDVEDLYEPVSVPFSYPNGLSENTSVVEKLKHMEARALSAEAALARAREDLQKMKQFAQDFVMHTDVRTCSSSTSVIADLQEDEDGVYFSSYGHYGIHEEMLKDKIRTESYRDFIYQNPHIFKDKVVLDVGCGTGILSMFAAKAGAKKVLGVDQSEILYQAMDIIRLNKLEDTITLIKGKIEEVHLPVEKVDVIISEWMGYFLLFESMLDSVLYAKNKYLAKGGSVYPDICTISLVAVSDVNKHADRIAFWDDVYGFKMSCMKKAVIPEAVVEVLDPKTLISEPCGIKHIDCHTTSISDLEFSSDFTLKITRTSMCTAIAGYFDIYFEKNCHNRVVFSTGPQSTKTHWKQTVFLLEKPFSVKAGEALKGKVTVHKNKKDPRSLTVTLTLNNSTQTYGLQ

[3] = target: Protein arginine N-methyltransferase 1 (Homo sapiens, UniProt Q99873); assay: Inhibition of human PRMT1 using H4-21peptide as substrate at 10 uM incubated for 10 mins by fluorescence based analysis relative to control
Chain of Protein arginine N-methyltransferase 1 (Q99873 whole entry, looked up): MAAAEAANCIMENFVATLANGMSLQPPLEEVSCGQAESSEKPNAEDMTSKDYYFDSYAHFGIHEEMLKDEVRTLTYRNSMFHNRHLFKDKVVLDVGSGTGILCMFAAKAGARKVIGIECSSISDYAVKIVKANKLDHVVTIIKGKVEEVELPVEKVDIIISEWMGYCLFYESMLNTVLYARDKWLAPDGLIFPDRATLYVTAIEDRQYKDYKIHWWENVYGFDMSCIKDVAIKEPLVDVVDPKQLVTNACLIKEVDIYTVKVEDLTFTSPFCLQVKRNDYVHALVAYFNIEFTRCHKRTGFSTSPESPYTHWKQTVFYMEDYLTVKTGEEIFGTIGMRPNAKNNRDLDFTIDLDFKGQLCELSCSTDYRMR

[4] = target: Protein arginine N-methyltransferase 8 (Homo sapiens, UniProt Q9NR22); assay: Inhibition of human PRMT8 using Histone H4 as substrate and SAM as cofactor at 10 uM by radiometric HotSpot assay relative to control
Chain of Protein arginine N-methyltransferase 8 (Q9NR22 2-394 limits assumed): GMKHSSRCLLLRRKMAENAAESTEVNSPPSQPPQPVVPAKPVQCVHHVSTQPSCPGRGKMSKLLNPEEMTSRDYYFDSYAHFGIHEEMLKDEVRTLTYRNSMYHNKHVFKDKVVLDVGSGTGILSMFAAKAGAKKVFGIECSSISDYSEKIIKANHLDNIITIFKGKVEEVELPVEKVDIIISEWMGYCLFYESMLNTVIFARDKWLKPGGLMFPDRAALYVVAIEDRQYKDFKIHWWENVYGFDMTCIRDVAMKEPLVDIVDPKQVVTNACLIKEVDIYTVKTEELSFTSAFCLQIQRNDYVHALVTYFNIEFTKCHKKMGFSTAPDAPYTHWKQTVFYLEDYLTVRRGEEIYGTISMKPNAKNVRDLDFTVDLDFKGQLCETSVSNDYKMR

[5] = target: Protein arginine N-methyltransferase 6 (Homo sapiens, UniProt Q96LA8); assay: Inhibition of human PRMT6 using GST-GAR as substrate and SAM as cofactor at 10 uM by radiometric HotSpot assay relative to control
Chain of Protein arginine N-methyltransferase 6 (Q96LA8 whole entry, looked up): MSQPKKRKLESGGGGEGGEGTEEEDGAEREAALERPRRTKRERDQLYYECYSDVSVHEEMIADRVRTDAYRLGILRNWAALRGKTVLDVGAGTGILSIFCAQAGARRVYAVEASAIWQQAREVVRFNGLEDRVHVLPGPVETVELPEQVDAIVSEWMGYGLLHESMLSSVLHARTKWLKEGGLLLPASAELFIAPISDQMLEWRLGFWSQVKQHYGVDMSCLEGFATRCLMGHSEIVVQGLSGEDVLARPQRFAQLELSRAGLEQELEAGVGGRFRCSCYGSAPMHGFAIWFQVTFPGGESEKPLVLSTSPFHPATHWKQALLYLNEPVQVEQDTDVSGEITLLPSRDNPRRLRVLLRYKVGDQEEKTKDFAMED

MDA-MB-231 = assay: Inhibition of colony formation in human MDA-MB-231 cells at 10 uM incubated for 2 weeks by crystal violet staining based analysis relative to control; assay type: functional; settings: MDA-MB-231, 336 h
[6] = target: T2, Histone-arginine methyltransferase CARM1 (Homo sapiens, UniProt Q86X55); assay: Inhibition of human PRMT4 using histone H3 as substrate and SAM as cofactor by radiometric HotSpot assay
T2 sequence (Q86X55 whole entry): T1 sequence (whole entry)

`N=C(NCCCSC[C@H]1O[C@@H](n2cnc3c(NCCCc4ccccc4)ncnc32)[C@H](O)[C@@H]1O)NCC1CC1` was tested, and the inhibition [1] was “Active”, the inhibition [2] was < 30% and the inhibition [3] was “Active”. For the same compound, the inhibition [4] was 70% and the inhibition [5] was “Active”.

`CNC[C@@H](O)COc1ccc(Cl)c(-c2nc(-c3c(C)noc3C)c(C)c(N3CC4(CCN(C(=O)OC)CC4)C3)n2)c1` gave an inhibition at 10 µM (MDA-MB-231) of 30%.

`Nc1ncnc2c1ncn2[C@@H]1O[C@H](CSCCNC(=O)NCc2ccc(-c3cccc(O)c3)cc2)[C@@H](O)[C@H]1O` was tested, and the inhibition [1] was 27%, the inhibition [2] was 3% and the inhibition [3] was < 50%. The inhibition [4] was < 30% and the inhibition [5] was 70%.

With `Nc1ncnc2c1ncn2[C@@H]1O[C@H](CSCCCNCc2cccc(-c3cncnc3)c2)[C@@H](O)[C@H]1O` the inhibition [1] was > 90%, the inhibition [2] was < 30% and the IC50 [6] was 49 nM. For the same compound, the inhibition [4] was > 50% and the inhibition [5] was 50%.

In the case of `Nc1ncnc2c1ncn2[C@@H]1O[C@H](CSCCCNC(=O)NCc2ccc3c(c2)OCO3)[C@@H](O)[C@H]1O`, the inhibition [1] is reported as 27%, the inhibition [2] is reported as 3% and the inhibition [3] is reported as < 50%. The inhibition [4] was < 30% and the inhibition [5] was 70%.

For `N=C(NCCCSC[C@H]1O[C@@H](n2cnc3c(NCCCc4ccccc4)ncnc32)[C@H](O)[C@@H]1O)NCC1CCC1`, the inhibition [1] was “Active”, the inhibition [2] was < 30% and the inhibition [3] was “Active”. The inhibition [4] was 70% and the inhibition [5] was “Active”.

`Nc1ncnc2c1ncn2[C@@H]1O[C@H](CSCCNCc2cccc(-c3ccoc3)c2)[C@@H](O)[C@H]1O` was tested, and the inhibition [1] was > 90%, the inhibition [2] was < 30% and the IC50 [6] was 1.2 nM. For the same compound, the inhibition [4] was > 50% and the inhibition [5] was 50%.

`Nc1ccc(-c2ccc(CNC(=O)NCCSC[C@H]3O[C@@H](n4cnc5c(N)ncnc54)[C@H](O)[C@@H]3O)cc2)cc1` was tested, and the inhibition [1] was 27%, the inhibition [2] was 3% and the inhibition [3] was < 50%. The inhibition [4] was < 30% and the inhibition [5] was 70%.

For `N=C(NCCCSC[C@H]1O[C@@H](n2cnc3c(NCCCc4ccccc4)ncnc32)[C@H](O)[C@@H]1O)NC1CCC1`, the inhibition [1] was “Active”, the inhibition [2] was < 30% and the inhibition [3] was “Active”. For the same compound, the inhibition [4] was 70% and the inhibition [5] was “Active”.

For `Nc1cccc(-c2ccc(CNC(=O)NCCSC[C@H]3O[C@@H](n4cnc5c(N)ncnc54)[C@H](O)[C@@H]3O)cc2)c1`, the inhibition [1] was 27%, the inhibition [2] was 3% and the inhibition [3] was < 50%. For the same compound, the inhibition [4] was < 30% and the inhibition [5] was 70%.

`N=C(NCCCSC[C@H]1O[C@@H](n2cnc3c(NCCCc4ccccc4)ncnc32)[C@H](O)[C@@H]1O)NC1CCCC1` was tested, and the inhibition [1] was “Active”, the inhibition [2] was < 30% and the inhibition [3] was “Active”. The inhibition [4] was 70% and the inhibition [5] was “Active”.

In the case of `N=C(NCCCSC[C@H]1O[C@@H](n2cnc3c(NCCCc4ccccc4)ncnc32)[C@H](O)[C@@H]1O)NCCc1ccccc1`, the inhibition [1] is reported as “Active”, the inhibition [2] is reported as < 30% and the inhibition [3] is reported as “Active”. The inhibition [4] was 70% and the inhibition [5] was “Active”.

In the case of `N=C(NCCCSC[C@H]1O[C@@H](n2cnc3c(NCCCc4ccccc4)ncnc32)[C@H](O)[C@@H]1O)Nc1ccccc1`, the inhibition [1] is reported as “Active”, the inhibition [2] is reported as < 30% and the inhibition [3] is reported as “Active”. The inhibition [4] was 70% and the inhibition [5] was “Active”.

With `N=C(NCCCSC[C@H]1O[C@@H](n2cnc3c(NCCCc4ccccc4)ncnc32)[C@H](O)[C@@H]1O)NC1CC1` the inhibition [1] was “Active”, the inhibition [2] was < 30% and the inhibition [3] was “Active”. For the same compound, the inhibition [4] was 70% and the inhibition [5] was “Active”.

With `N=C(NCCCN)NCCCSC[C@H]1O[C@@H](n2cnc3c(NCCCc4ccccc4)ncnc32)[C@H](O)[C@@H]1O` the inhibition [1] was “Active”, the inhibition [2] was < 30% and the inhibition [3] was “Active”. For the same compound, the inhibition [4] was 70% and the inhibition [5] was “Active”.

Work on `CNCCN1CCC(c2cc(CN(C)C(=O)c3cccc(Oc4ccccc4)c3)ccn2)CC1` yielded an inhibition at 10 µM (MDA-MB-231) of 30%.

`N=C(NCCCSC[C@H]1O[C@@H](n2cnc3c(NCCCc4ccccc4)ncnc32)[C@H](O)[C@@H]1O)NCCCc1ccccc1` was tested, and the inhibition [1] was “Active”, the inhibition [2] was < 30% and the inhibition [3] was “Active”. The inhibition [4] was 70% and the inhibition [5] was “Active”.

In the case of `Nc1ncnc2c1ncn2[C@@H]1O[C@H](CSCCNCc2cccc(-c3cncnc3)c2)[C@@H](O)[C@H]1O`, the inhibition [1] is reported as > 90%, the inhibition [2] is reported as < 30% and the IC50 [6] is reported as 9.3 nM. The inhibition [4] was > 50% and the inhibition [5] was 50%.

With `N=C(NCCCO)NCCCSC[C@H]1O[C@@H](n2cnc3c(NCCCc4ccccc4)ncnc32)[C@H](O)[C@@H]1O` the inhibition [1] was “Active”, the inhibition [2] was < 30% and the inhibition [3] was “Active”. The inhibition [4] was 70% and the inhibition [5] was “Active”.

In the case of `Nc1ncnc2c1ncn2[C@@H]1O[C@H](CSCCOc2ccc(-c3cccc(O)c3)cc2)[C@@H](O)[C@H]1O`, the inhibition [2] is reported as < 30%, the inhibition [3] is reported as “inactive” and the inhibition [4] is reported as < 50%. For the same compound, the inhibition [5] was < 50%.

`N=C(NCCCSC[C@H]1O[C@@H](n2cnc3c(NCCCc4ccccc4)ncnc32)[C@H](O)[C@@H]1O)NC1CCCCC1` was tested, and the inhibition [1] was “Active”, the inhibition [2] was < 30% and the inhibition [3] was “Active”. For the same compound, the inhibition [4] was 70% and the inhibition [5] was “Active”.

With `Nc1ncnc2c1ncn2[C@@H]1O[C@H](CSCCNC(=O)NCc2ccccc2)[C@@H](O)[C@H]1O` the inhibition [1] was > 90%, the inhibition [2] was > 50% and the inhibition [3] was < 50%. For the same compound, the inhibition [4] was < 30% and the inhibition [5] was 70%.

In the case of `N=C(NCCCSC[C@H]1O[C@@H](n2cnc3c(NCCCc4ccccc4)ncnc32)[C@H](O)[C@@H]1O)NCc1ccccc1`, the inhibition [1] is reported as “Active”, the inhibition [2] is reported as < 30% and the inhibition [3] is reported as “Active”. For the same compound, the inhibition [4] was 70% and the inhibition [5] was “Active”.

With `Nc1ncnc2c1ncn2[C@@H]1O[C@H](CSCCOc2ccc(-c3ccncc3)cc2)[C@@H](O)[C@H]1O` the inhibition [2] was < 30%, the inhibition [3] was “inactive” and the inhibition [4] was < 50%. For the same compound, the inhibition [5] was < 50%.

For `Nc1ncnc2c1ncn2[C@@H]1O[C@H](CSCCOc2ccc(-c3ccc(F)cc3)cc2)[C@@H](O)[C@H]1O`, the inhibition [2] was < 30%, the inhibition [3] was “inactive” and the inhibition [4] was < 50%. For the same compound, the inhibition [5] was < 50%.

`Nc1ncnc2c1ncn2[C@@H]1O[C@H](CSCCNC(=O)NCc2ccc(-c3ccc(O)cc3)cc2)[C@@H](O)[C@H]1O` was tested, and the inhibition [1] was 27%, the inhibition [2] was 3% and the inhibition [3] was < 50%. For the same compound, the inhibition [4] was < 30% and the inhibition [5] was 70%.

For `Nc1ncnc2c1ncn2[C@@H]1O[C@H](CSCCOc2ccc(-c3cncnc3)cc2)[C@@H](O)[C@H]1O`, the inhibition [2] was < 30%, the inhibition [3] was “inactive” and the inhibition [4] was < 50%. For the same compound, the inhibition [5] was < 50%.

With `CCCCNC(=N)NCCCSC[C@H]1O[C@@H](n2cnc3c(NCCCc4ccccc4)ncnc32)[C@H](O)[C@@H]1O` the inhibition [1] was “Active”, the inhibition [2] was < 30% and the inhibition [3] was “Active”. The inhibition [4] was 70% and the inhibition [5] was “Active”.
